The values that follow come from patent US8034931B2, “Process for producing substituted aminoquinazolinone derivative, intermediate therefor, and pest control agent” (Nihon Nohyaku Co., Ltd., priority 2003, dated 2011).

Common to all, as to assay type: in vivo
For series [1], the system named is Green Peach Aphid (Myzus persicae). In words: Insecticidal effect on green peach aphid, foliar spray on potted Chinese cabbage (Test Example 1). Particulars: 500 ppm liquid chemical, sprayed on Chinese cabbage stalks and leaves, six days after the spraying. The text has this:
Insecticidal Effect on Green Peach Aphid (Myzus persicae)
A Chinese cabbage plant was planted in each of plastic pots with a diameter of 8 cm and a height of 8 cm, and green peach aphids were propagated on the plant, after which the parasites in each pot were counted. A preparation containing each compound of the present invention listed in Tables 2 to 4 or each comparative compound as an active ingredient was dispersed in and diluted with water to obtain a 500 ppm liquid chemical. The stalks and leaves of the potted Chinese cabbage plants were sprayed with the liquid chemical and air-dried, and then the pots were stored in a greenhouse. Six days after the spraying, green peach aphids parasitic on each Chinese cabbage plant were counted and the control efficacy was calculated by the following equation, whereby the insecticidal effect was judged according to the criterion shown below. Control efficacy=100−{(T×Ca)/(Ta×C)}×100 • Ta: number of parasites before spraying in treated group, • T: number of parasites after spraying in treated group, • Ca: number of parasites before spraying in untreated group, • C: number of parasites after spraying in untreated group.

Series [2] has as its system White Peach Scale (Pseudaulacaspis pentagona). In words: Insecticidal effect on white peach scale, sprayed potato tuber (Test Examples 3 and 5). To be noted: 100 ppm liquid chemical, potato tuber with first-instar larvae, fourteen days after the treatment. The text has this:
Insecticidal Effect on White Peach Scale (Pseudaulacaspis pentagona)
A preparation containing each compound of the present invention listed in Tables 2 to 4 or each comparative compound as an active ingredient was dispersed in and diluted with water to obtain a 100 ppm liquid chemical. A potato tuber with first-instar larvae of white peach scale as parasites was sprayed with the liquid chemical with a spray gun. Fourteen days after the treatment, the living insects were counted. In the same manner as in Test Example 2, the corrected mortality was calculated and the insecticidal effect was judged.
Insecticidal Effect on White Peach Scale (Pseudaulacaspis pentagona) at a Low Dosage
The same test as in Test Example 3 was carried out except for changing the concentration of the liquid chemical to 30 ppm.

For series [3], the system named is Greenhouse Whitefly (Trialeuroddes vaporariorum). Nature of the series: Insecticidal effect on greenhouse whitefly, sprayed tomato leaf (Test Examples 2 and 4). To be noted: 100 ppm liquid chemical, sprayed tomato leaf, 20 adult whiteflies, four days after the inoculation. An excerpt:
Insecticidal Effect on Greenhouse Whitefly (Trialeuroddes vaporariorum)
A preparation containing each compound of the present invention listed in Tables 2 to 4 or each comparative compound as an active ingredient was dispersed in and diluted with water to obtain a 100 ppm liquid chemical. A tomato leaf set in a 20-ml vial with its stalk immersed in water was sprayed with the liquid chemical with a spray gun on a turntable. After air-dryness, the treated leaf was placed in a glass cylinder and inoculated with 20 adult greenhouse whiteflies. After the treatment, the glass cylinder was placed in a greenhouse. Four days after the inoculation, the living insects were counted. The corrected mortality was calculated according to the following equation and the insecticidal effect was judged according to the criterion shown below.
[formula] Criterion for Judgment:
Insecticidal Effect on Greenhouse (Trialeuroddes vaporariorum) at a Low Dosage
The same test as in Test Example 2 was carried out except for changing the concentration of the liquid chemical to 3 ppm.

For `CCS(=O)(=O)N1C(=O)N(N=Cc2cccnc2)Cc2cc(C(F)(C(F)(F)F)C(F)(F)F)ccc21` [compound 23], in series [1], the “Test Example 1: insecticidal effect (control efficacy)” value (“Test Example 1: insecticidal effect” below) is on record as “A (Control efficacy 100%)”. The “Test Example 3: insecticidal effect (corrected mortality)” value (“Test Example 3: insecticidal effect” for short) in series [2] is “A (Corrected mortality 100%)”. Also, the “Test Example 2: insecticidal effect (corrected mortality)” value (shortened to “Test Example 2: insecticidal effect”) in series [3] is reported as “A (Corrected mortality 100%)”.

With `O=C(c1ccccc1)N1C(=O)N(N=Cc2cccnc2)Cc2cc(C(F)(C(F)(F)F)C(F)(F)F)ccc21` [compound 24], in series [1], the “Test Example 1: insecticidal effect” value is on record as “A (Control efficacy 100%)”. Also, the “Test Example 3: insecticidal effect” value in series [2] is recorded as “A (Corrected mortality 100%)”. Also, the “Test Example 2: insecticidal effect” value in series [3] was “A (Corrected mortality 100%)”.

Regarding `O=C(c1ccccc1C(F)(F)F)N1C(=O)N(N=Cc2cccnc2)Cc2cc(C(F)(C(F)(F)F)C(F)(F)F)ccc21` [compound 25], the “Test Example 1: insecticidal effect” value in series [1] is “A (Control efficacy 100%)”. The “Test Example 3: insecticidal effect” value in series [2] is on record as “A (Corrected mortality 100%)”. The “Test Example 2: insecticidal effect” value in series [3] is listed as “A (Corrected mortality 100%)”.

For `O=C(c1cccc(C(F)(F)F)c1)N1C(=O)N(N=Cc2cccnc2)Cc2cc(C(F)(C(F)(F)F)C(F)(F)F)ccc21` [compound 26], the “Test Example 1: insecticidal effect” value in series [1] is “A (Control efficacy 100%)”. The “Test Example 3: insecticidal effect” value in series [2] is on record as “A (Corrected mortality 100%)”. Besides, the “Test Example 2: insecticidal effect” value in series [3] is “A (Corrected mortality 100%)”.

Take `O=C(c1ccc(C(F)(F)F)cc1)N1C(=O)N(N=Cc2cccnc2)Cc2cc(C(F)(C(F)(F)F)C(F)(F)F)ccc21` [compound 27]: in series [1], the “Test Example 1: insecticidal effect” value was “A (Control efficacy 100%)”. In series [2], the “Test Example 3: insecticidal effect” value was “A (Corrected mortality 100%)”. The “Test Example 2: insecticidal effect” value in series [3] is given as “A (Corrected mortality 100%)”.

With `O=C(c1ccc(F)cc1)N1C(=O)N(N=Cc2cccnc2)Cc2cc(C(F)(C(F)(F)F)C(F)(F)F)ccc21` [compound 28], the “Test Example 1: insecticidal effect” value in series [1] is “A (Control efficacy 100%)”. The “Test Example 3: insecticidal effect” value in series [2] was “A (Corrected mortality 100%)”. In addition, in series [3], the “Test Example 2: insecticidal effect” value is reported as “A (Corrected mortality 100%)”.

For the compound `COc1ccccc1C(=O)N1C(=O)N(N=Cc2cccnc2)Cc2cc(C(F)(C(F)(F)F)C(F)(F)F)ccc21` [compound 29], in series [1], the “Test Example 1: insecticidal effect” value is “A (Control efficacy 100%)”. The “Test Example 3: insecticidal effect” value in series [2] is “A (Corrected mortality 100%)”. In addition, the “Test Example 2: insecticidal effect” value in series [3] is “A (Corrected mortality 100%)”.

As to `Cc1cccc(C(=O)N2C(=O)N(N=Cc3cccnc3)Cc3cc(C(F)(C(F)(F)F)C(F)(F)F)ccc32)c1` [compound 30], the “Test Example 1: insecticidal effect” value in series [1] is “A (Control efficacy 100%)”. In series [2], the “Test Example 3: insecticidal effect” value was “A (Corrected mortality 100%)”. The “Test Example 2: insecticidal effect” value in series [3] was “A (Corrected mortality 100%)”.

As for `O=C(c1ccc(Cl)c(Cl)c1)N1C(=O)N(N=Cc2cccnc2)Cc2cc(C(F)(C(F)(F)F)C(F)(F)F)ccc21` [compound 31], the “Test Example 1: insecticidal effect” value in series [1] is reported as “A (Control efficacy 100%)”. Besides, the “Test Example 3: insecticidal effect” value in series [2] was “A (Corrected mortality 100%)”. In addition, in series [3], the “Test Example 2: insecticidal effect” value was “A (Corrected mortality 100%)”.

As for `O=C(c1ccc(-c2ccccc2)cc1)N1C(=O)N(N=Cc2cccnc2)Cc2cc(C(F)(C(F)(F)F)C(F)(F)F)ccc21` [compound 32], the “Test Example 1: insecticidal effect” value in series [1] is recorded as “A (Control efficacy 100%)”. The “Test Example 3: insecticidal effect” value in series [2] is reported as “A (Corrected mortality 100%)”. Besides, the “Test Example 2: insecticidal effect” value in series [3] is reported as “A (Corrected mortality 100%)”.

As to `CN1C(=O)N(N=Cc2cccnc2)Cc2cc(C(F)(C(F)(F)F)C(F)(F)F)ccc21` [compound No. 1, 1-methyl-3-(3-pyridylmethylideneamino)-3,4-dihydro-6-[1,2,2,2-tetrafluoro-1-(trifluoromethyl)ethyl]-2(1H)-quinazolinone], the “Test Example 1: insecticidal effect” value in series [1] is given as “A (Control efficacy 100%)”. In addition, the “Test Example 3: insecticidal effect” value in series [2] was “A (Corrected mortality 100%)”. Moreover, in series [3], the “Test Example 2: insecticidal effect” value was “A (Corrected mortality 100%)”.

With `CCCN1C(=O)N(N=Cc2cccnc2)Cc2cc(C(F)(C(F)(F)F)C(F)(F)F)ccc21` [compound No. 3], the “Test Example 1: insecticidal effect” value in series [1] is on record as “A (Control efficacy 100%)”. In addition, in series [2], the “Test Example 3: insecticidal effect” value is on record as “A (Corrected mortality 100%)”. In addition, the “Test Example 2: insecticidal effect” value in series [3] is “A (Corrected mortality 100%)”.

With `CC(=O)N1C(=O)N(N=Cc2cccnc2)Cc2cc(C(F)(C(F)(F)F)C(F)(F)F)ccc21` [compound No. 8, 1-acetyl-3-(3-pyridylmethylideneamino)-3,4-dihydro-6-[1,2,2,2-tetrafluoro-1-(trifluoromethyl)ethyl]-2(1H)-quinazolinone], the “Test Example 1: insecticidal effect” value in series [1] is “A (Control efficacy 100%)”. In series [2], the “Test Example 3: insecticidal effect” value was “A (Corrected mortality 100%)”. In addition, the “Test Example 2: insecticidal effect” value in series [3] was “A (Corrected mortality 100%)”.

As for `O=C(c1cccc2ccccc12)N1C(=O)N(N=Cc2cccnc2)Cc2cc(C(F)(C(F)(F)F)C(F)(F)F)ccc21` [compound No. 33], in series [1], the “Test Example 1: insecticidal effect” value is given as “A (Control efficacy 100%)”. Also, the “Test Example 3: insecticidal effect” value in series [2] is “A (Corrected mortality 100%)”. Further, in series [3], the “Test Example 2: insecticidal effect” value is recorded as “A (Corrected mortality 100%)”.
